Tested on: ABCA1 mRNA
Experiment: ABCA1 mRNA induction in THP-1 cells, QuantiGene branched DNA assay
Format: cell-based
Conditions: 10 μM test compound, 18-20 hours
Summary of the method: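 THP-1 cells, grown to subconfluence, treated with compounds at 10 and 3 μM in DMEM/BSA for 18–20 h. Lysates hybridized with ABCA1-specific probe 16–18 h at 53 °C; QuantiGene branched DNA luminescence gives fold increase over DMSO.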

Row | Molecule | ABCA1 Induction Fold Increase over DMSO Vehicle [FOLD INCREASE]
1 | COc1cccc2c1OCC1C2Nc2ccc(Cc3nnn[nH]3)cc2C1(C)C (stereo not shown) [Number 76, 4-methoxy-7,7-dimethyl-9-(1,2,3,4-tetraazol-5-ylmethyl)-7,12,12a,6a-tetrahydrochromano[4,3-b]quinoline] | 6.0
2 | COc1cccc2c1C1Nc3ccc(C(F)(F)F)cc3C(C)(C)C1CO2 (stereo not shown) [Number 44, 1-methoxy-7,7-dimethyl-9-(trifluoromethyl)-7,12,12a,6a-tetrahydrochromano[4,3-b]quinoline] | 2.2
3 | COc1cccc2c1[C@H]1Nc3ccc(-c4ccc(C#N)cc4)cc3C(C)(C)[C@@H]1CO2 [Number 92, 4-((12aS,6aS)-1-methoxy-7,7-dimethyl-7,12,12a,6a-tetrahydrochromano[4,3-b]quinolin-9-yl)benzenecarbonitrile] | 8.7
4 | CC1(C)c2cc(CC(=O)O)ccc2NC2c3cc(Br)ccc3OCC21 (stereo not shown) [Number 4, 2-(2-bromo-7,7-dimethyl-7,12,12a,6a-tetrahydrochromano[4,3-b]quinolin-9-yl)acetic acid] | 2.1
5 | CC(C)=CCOC(=O)c1ccc2c(c1)OC[C@@H]1[C@H]2Nc2ccc(B(O)O)cc2C1(C)C [Number 10, 3-methylbut-2-enyl (6aS,12aR)-9-(dihydroxyboramethyl)-7,7-dimethyl-7,12,12a,6a-tetrahydrochromano[4,3-b]quinoline-3-carboxylate] | 1.5
6 | COc1cc(Cl)cc2c1OCC1C2Nc2ccc(NS(=O)(=O)c3ccc(C)cc3)cc2C1(C)C (stereo not shown) [Number 105, (2-chloro-4-methoxy-7,7-dimethyl(7,12,12a,6a-tetrahydrochromano[4,3-b]quinolin-9-yl))[(4-methylphenyl)sulfonyl]amine] | 3.6
7 | CC(C)=CCOc1cccc2c1OCC1C2Nc2ccc(C(O)(C(F)(F)F)C(F)(F)F)cc2C1(C)C (stereo not shown) [Number 25, 2-[7,7-dimethyl-4-(3-methylbut-2-enyloxy)(7,12,12a,6a-tetrahydrochromano[4,3-b]quinolin-9-yl)]-1,1,1,3,3,3-hexafluoropropan-2-ol] | 4.0
8 | CCOC(=O)c1ccc(-c2ccc3c(c2)C(C)(C)[C@@H]2COc4cccc(OC)c4[C@H]2N3)cc1 [Number 96, ethyl 4-((12aS,6aS)-1-methoxy-7,7-dimethyl-7,12,12a,6a-tetrahydrochromano[4,3-b]quinolin-9-yl)benzoate] | 7.6
9 | COc1cccc2c1[C@H]1Nc3ccc(-c4ccc(/C=C/C(=O)O)cc4)cc3C(C)(C)[C@H]1CO2 [Number 115, (2E)-3-[4-((12aS,6aR)-1-methoxy-7,7-dimethyl(7,12,12a,6a-tetrahydrochromano[4,3-b]quinolin-9-yl))phenyl]prop-2-enoic acid] | 2.2
10 | COc1cccc2c1OC[C@@H]1[C@@H]2Nc2ccc(C(C)C)cc2C1(C)C [Number 47, (12aS,6aS)-4-methoxy-7,7-dimethyl-9-(methylethyl)-7,12,12a,6a-tetrahydrochromano[4,3-b]quinoline] | 3.6
11 | CCOc1cccc2c1OCC1C2Nc2ccc(C(F)(F)F)cc2C1(C)C (stereo not shown) [Number 41, 4-ethoxy-7,7-dimethyl-9-(trifluoromethyl)-7,12,12a,6a-tetrahydrochromano[4,3-b]quinoline] | 2.1
12 | CC1(C)c2cc(C(O)(C(F)(F)F)C(F)(F)F)ccc2NC2c3cc(C(=O)O)ccc3OCC21 (stereo not shown) [Number 16, 7,7-dimethyl-9-[2,2,2-trifluoro-1-hydroxy-1-(trifluoromethyl)ethyl]-7,12,12a,6a-tetrahydrochromano[4,3-b]quinoline-2-carboxylic acid] | 2.4
13 | COc1cccc2c1[C@H]1Nc3ccc(-c4cnco4)cc3C(C)(C)[C@H]1CO2 [Number 62, (12aS,6aR)-1-methoxy-7,7-dimethyl-9-(1,3-oxazol-5-yl)-7,12,12a,6a-tetrahydrochromano[4,3-b]quinoline] | 10.6
14 | COc1cccc2c1[C@H]1Nc3ccc(OC(F)(F)F)cc3C(C)(C)[C@H]1CO2 [Number 57, ((12aS,6aR)-1-methoxy-7,7-dimethyl(7,12,12a,6a-tetrahydrochromano[4,3-b]quinolin-9-yloxy))trifluoromethane] | 6.1
15 | methylethyl 3-(4-methoxy-7,7-dimethyl-7,12-dihydro-6H-chromeno[4,3-b]quinolin-9-yl)benzoate [Number 61] | 2.0
16 | COc1cccc2c1[C@H]1Nc3ccc(-c4nnn[nH]4)cc3C(C)(C)[C@H]1CO2 [Number 71, (12aS,6aR)-1-methoxy-7,7-dimethyl-9-(1,2,3,4-tetraazol-5-yl)-7,12,12a,6a-tetrahydrochromano[4,3-b]quinoline] | 9.5
17 | COc1cc(Br)cc2c1OC[C@H]1[C@H]2Nc2ccc(C(O)(C(F)(F)F)C(F)(F)F)cc2C1(C)C [Number 66, 2-((12aR,6aR)-2-bromo-4-methoxy-7,7-dimethyl(7,12,12a,6a-tetrahydrochromano[4,3-b]quinolin-9-yl))-1,1,1,3,3,3-hexafluoropropan-2-ol] | 2.5
18 | COc1cccc2c1C1Nc3ccc(C(N)=O)cc3C(C)(C)C1CO2 (stereo not shown) [Number 45, 1-methoxy-7,7-dimethyl-7,12,12a,6a-tetrahydrochromano[4,3-b]quinoline-9-carboxamide] | 4.9
19 | CCS(=O)(=O)N1CCN(C(=O)c2cnn(-c3ccc4c(c3)C(C)(C)[C@H]3COc5cccc(OC)c5[C@H]3N4)c2C)CC1 [Number 140, 1-((6aR,12aS)-6a,7,12,12a-tetrahydro-1-methoxy-7,7-dimethyl-6H-chromeno[4,3-b]quinolin-9-yl)-5-methyl-1H-pyrazole-4-((4-ethanesulfonylpiperazin-1-yl)methanone)] | 5.1

Same assay, conditions: Homo sapiens, 10 μM test compound, 18-20 hours, read-out: ABCA1 Induction Fold Increase over DMSO Vehicle

Row | Molecule | fold induction at 10 µM
20 | COc1cc(-c2cn[nH]c2)cc2c1OC[C@H]1[C@@H]2Nc2ccc(C#N)cc2C1(C)C [Number 182, (6aR,12aS)-6a,7,12,12a-tetrahydro-4-methoxy-7,7-dimethyl-2-(1H-pyrazol-4-yl)-6H-chromeno[4,3-b]quinoline-9-carbonitrile] | 4.6
21 | COc1cccc2c1[C@@H]1[C@H](CO2)C(C)(C)c2ccccc2N1C1CCCCC1 [Number 166, (6aR,12aS)-12-cyclohexyl-6a,7,12,12a-tetrahydro-1-methoxy-7,7-dimethyl-6H-chromeno[4,3-b]quinoline] | 12.5
22 | COc1cccc2c1OC[C@H]1[C@@H]2Nc2ccc(-c3ccc(F)cc3)cc2C1(C)C [Number 99, (12aS,6aR)-9-(4-fluorophenyl)-4-methoxy-7,7-dimethyl-7,12,12a,6a-tetrahydrochromano[4,3-b]quinoline] | 1.7
23 | COc1cccc2c1[C@H]1Nc3ccc(-n4cc(C(=O)O)cn4)cc3C(C)(C)[C@H]1CO2 [Number 136, 1-((6aR,12aS)-6a,7,12,12a-tetrahydro-1-methoxy-7,7-dimethyl-6H-chromeno[4,3-b]quinolin-9-yl)-1H-pyrazole-4-carboxylic acid] | 4.1
24 | COc1cc(I)cc2c1OC[C@H]1[C@@H]2Nc2ccc(-n3ncc(C(=O)O)c3C)cc2C1(C)C [Number 178, 1-((6aR,12aS)-6a,7,12,12a-tetrahydro-2-iodo-4-methoxy-7,7-dimethyl-6H-chromeno[4,3-b]quinolin-9-yl)-5-methyl-1H-pyrazole-4-carboxylic acid] | 5.1
25 | COC(=O)c1ccc2c(c1)C(C)(C)[C@H]1COc3c(OC)cc(-c4c(C)noc4C)cc3[C@H]1N2 (racemic) [Number 162, (6aR,12aS)-methyl 6a,7,12,12a-tetrahydro-4-methoxy-7,7-dimethyl-2-(3,5-dimethylisoxazol-4-yl)-6H-chromeno[4,3-b]quinoline-9-carboxylate] | 7.7
26 | CCOC(=O)c1cnn(-c2ccc3c(c2)C(C)(C)[C@H]2COc4cccc(OC)c4[C@H]2N3)c1 [Number 135, ethyl 1-((6aR,12aS)-6a,7,12,12a-tetrahydro-1-methoxy-7,7-dimethyl-6H-chromeno[4,3-b]quinolin-9-yl)-1H-pyrazole-4-carboxylate] | 6.4
27 | COc1cccc2c1[C@H]1Nc3ccc(S(C)(=O)=O)cc3C(C)(C)[C@H]1CO2 [Number 122, (6aR,12aS)-6a,7,12,12a-tetrahydro-1-methoxy-7,7-dimethyl-9-(methylsulfonyl)-6H-chromeno[4,3-b]quinoline] | 2.4
28 | COC(=O)CCN1c2ccccc2C(C)(C)[C@H]2COc3cccc(OC)c3[C@@H]21 [Number 171, methyl 3-((6aR,12aR)-6a,7-dihydro-1-methoxy-7,7-dimethyl-6H-chromeno[4,3-b]quinolin-12(12aH)-yl)propanoate] | 2.2
29 | COc1ccc2c(c1)C(C)(C)[C@@H]1COc3cccc(OC)c3[C@H]1N2C [Number 176, (6aS,12aS)-6a,7,12,12a-tetrahydro-1,9-dimethoxy-7,7,12-trimethyl-6H-chromeno[4,3-b]quinoline] | 2.9
30 | COc1cccc2c1[C@@H]1[C@H](CO2)C(C)(C)c2ccccc2N1CC(=O)O [Number 154, 2-((6aR,12aS)-6a,7-dihydro-1-methoxy-7,7-dimethyl-6H-chromeno[4,3-b]quinolin-12(12aH)-yl)acetic acid] | 9.4
31 | COc1cc(-c2cn[nH]c2)cc2c1OC[C@H]1[C@@H]2Nc2ccc(-c3cnco3)cc2C1(C)C [Number 159, (6aR,12aS)-6a,7,12,12a-tetrahydro-4-methoxy-7,7-dimethyl-9-(oxazol-5-yl)-2-(1H-pyrazol-4-yl)-6H-chromeno[4,3-b]quinoline] | 7.6
